This note sets out measurements from patent US20260009085A1, “METHODS AND COMPOSITIONS FOR THE DIAGNOSIS AND TREATMENT OF CANCER” (Chengdu Anticancer Bioscience, Ltd., priority 2023, published 2026).

SMILES strings stand for the structures.

Experiment [1] deals with RPE-MYC. As to the kind of experiment: Model cell screen: CPPC complex localization and cell death, RPE-MYC. It is filed as cell-based, human. The protocol:
(§1) In the model screening cell lines, there was an indistinguishable threshold concentration of approximately 20 nM, which was required to show disruption of the CPPC complex by IHC at the spindle midzone and equatorial cortex of anaphase cells, indicating a failure in CPPC relocation. This similarity in the threshold effective concentration for target inhibition is, therefore, not influenced by overexpression of MYC. […] Similar data with other MYC-SL compounds were observed.

Experiment [2] has as its system RPE-NEO. In words: Model cell screen: CPPC complex localization and cell death, RPE-NEO. The format is cell-based, human. The protocol:
as §1

Experiment [3] has as its system Calu6 tumor model. As to the kind of experiment: Calu6 xenograft tumor model (tumor growth, body weight, tumor weight, Ki-67). It is filed as in vivo. Particulars: Calu6 xenografted mice. The protocol:
Xenografted mice were treated with novel antimitotic compounds LXY013, LW33R, and LG157, respectively (FIG. 4A). p-values in FIG. 4A are from Logrank analysis. Tumor growth curves and body weight over the course of the experiments are depicted with vehicle control in black, test compounds in gray (n=6). FIG. 4B is a set of images of tumors and a graph depicting tumor weight at an end-point of 20 days. FIG. 4C is a set of photomicrographs of immunohistochemistry analyses and its quantification, respectively, of Ki-67 expression in xenografts. For LG157, * is p<0.05. p-values in FIG. 4B and FIG. 4C are from multi-parametric analysis. **** is p<0.0001.
Additionally, the volume and weight of tumors in response to the compounds described herein were assessed (FIG. 4A-4B) as well as immunohistochemistry analyses and quantification of Ki-67 expression in xenografts (FIG. 4C).

The test system of experiment [4] is panel of 98 human cancer cell lines. As to the kind of experiment: Concentration-response in panel of 98 human cancer cell lines with MYC/MKLP2 biomarker statistical analysis (AUC, EC50, IC50, Emax, h). The format is cell-based. The procedure:
For passaging of cell lines prior to a […] (MTT) assay, cells were routinely split when reaching mid-log phase and not allowed to progress to confluence. For the determination of cytotoxicity, cells were plated in 96-well plates at 4,000 cells per well in a volume of 100 μL and cultivated for 15 to 24 hours to reach 20-30% confluence. Cells on the plate were then exposed in triplicate to test compounds at concentrations ranging from 0.06 nM to 10 μM by using 3-fold serial dilutions or a concentration range from 5 nM to 10 μM using 2-fold serial dilutions. Cells exposed to vehicle (0.1% DMSO) were used as a negative control. Three days after initiation of the treatment, 20 μL of MTT (stock solution 5 mg/mL) was added to each well before incubation at 37° C. for another 3-4 hours. The medium was then aspirated with a microplate washer (BioTek ELX50) before 50 μL of DMSO was added to each well. After incubation with shaking for 10 minutes, the 96-well plate was analyzed with a microplate reader (BioTek ELX808iu) at a wavelength of 570 nm. The relative cell number was calculated as (A570^Compound/A570^DMSO)×100%. […] Statistical analysis was performed in GraphPad Prism 8.0.2. Error bars were presented as mean±1 standard deviation.
The CellTiter-Glo® (CTG) assay determines levels of ATP, and therefore the metabolic health of cell grown in culture. […] Wells containing medium without cells were used as a baseline control to obtain a value for background luminescence. […] 150 μL of the mixture was transferred to a white 96-well microplate (Falcon, Cat. #353296) and the luminescence signal was recorded by a microplate reader (Tecan Spark).
To develop a comparative metric reflecting the level of MYC and/or MKLP2 in a given cell line, the signal intensity of the MYC and MKLP2 protein bands from immunoblot analysis were normalized to the intensity of the housekeeping protein β-ACTIN. […] Whole cell MYC and MKLP2 proteins were quantified in a panel of 98 human cancer cell lines, see Table 4, below. […]

Setting [5] is: IHC at spindle midzone and equatorial cortex of anaphase cells.

`CNC(=O)c1cc(OC)cc(Oc2ncccc2-c2ccnc(C)c2)c1` [LG157]: the cell death entry is listed as “extensive cell death occurred in RPE-MYC” in experiment [1] and “not RPE-NEO cells” in experiment [2]. For the same compound, the “threshold concentration required to show disruption of the CPPC complex” value in experiment [1] (setting [5]) and in experiment [2] (setting [5]) was “approximately 20 nM” in each case. In experiment [3], the tumor growth entry is on record as “inhibition of tumor growth”. In experiment [4] (89 of the 98 cell lines), the “association of oncogenic alterations (TP53, RB, PTEN, RAS, BRAF, PI3K) with response” value was “no evidence was found that these alterations were associated with either sensitivity or resistance”. Further, the “relation of MKLP2 protein level to response” value in experiment [4] (98 cell lines) was “lower protein levels of MKLP2, but not high, predicted a favorable response”. In addition, the “relation of MYC abundance to sensitivity” value in experiment [4] (98 cell lines) is listed as “the abundance of MYC in the human cancer cell lines positively relates to sensitivity”.
